Consider five molecules from PMC11760092, “Pretreatment with serine protease inhibitors impairs Leishmania amazonensis survival on macrophages” (Parasites & Vectors, 2025).

Read-outs that look alike come from different tables or passages of the source.

The subject of series [1] is Leishmania amazonensis-WT promastigotes. In words: Antipromastigote assay (MTT). Format: cell-based. The note with it: 72 h of incubation; interval in brackets; read-out: Antileishmanial effect in Leishmania amazonensis IC50 Promastigote. The protocol:
Leishmania amazonensis–WT promastigotes, in the logarithmic phase of growth, were transferred to 96-well culture plates (final concentration 2 × 10^6 cells/mL) and exposed to different concentrations of inhbitors during 72 h at 25 °C. The cell viability was evaluated by the 3-(4,5-dimethylthiazol-2-yl)-2,5 diphenyltetrazolium bromide (MTT) method (obtained from Sigma-Aldrich). The inhibitory concentration of 50% of parasite growth (IC50) values were calculated using GraphPad Prism 8 software […]. Three independent experiments in triplicate were performed. Amphotericin B (Cristália, São Paulo, SP, Brazil) was used as a reference drug.

Another series in a line: Cytotoxicity assay (MTT). Format: cell-based, BALB/c mice. Particulars: BALB/c, mouse. On the procedure:
To determinate the toxicity of the inhibitors on mammalian cells, peritoneal macrophages from BALB/c mice, obtained by peritoneal lavage, in concentration of 2 × 10^6 macrophages/mL, were adhered in 96-well culture plates overnight at 37 °C with 5% CO2. The inhibitors were then added in different concentrations and incubated for 72 h at 37 °C and 5% CO2. Cell viability was also assessed by the MTT method. Cytotoxic concentration of 50% of macrophages (CC50) values were calculated using GraPadPrism 8 software. Three independent experiments in triplicate were performed.

For series [2], the system named is L. amazonensis serine proteases. In words: Enzymatic assay on promastigote lysate with substrate ABZ-V-F-R-S-L-K-Q EDDnp. In kind it is biochemical, Leishmania amazonensis. Particulars: first 10 min. The protocol: The enzymatic assay was conducted in a final volume of 200 µL per well, containing 1 µM of substrate, supernatant of lysate of 3.7 × 10^6 parasites, 2.5 µM of inhibitors (PF-429242 and TPCK) or 3 µM of E-64 in Tris-buffered pH 8. Substrate ABZ-V-F-R-S-L-K-Q EDDnp was used, which was provided by Dr. Luiz Juliano Neto from the Department of Biophysics of UNIFESP-EPM and is described in Alves, L.C. et al.. The lysate was prepared with promastigotes in stationary phase of growth, washed three times with PBS pH 7.2, and in the last wash it was resuspended in Tris-buffered pH 8 with 1% NP40. The parasites were submitted to five rapid freeze–thaw cycles in liquid nitrogen. The lysate was centrifuged at 20,000g for 10 min at […]. The supernatant was stored at −20 °C until use. The read was carried out using the spectrofluorimeter SoftMax M3 with excitation/emission of 320/420 nm.

Series [3] concerns L. donovani in RAW 264.7 cells. Set-up: method as in PMID 26040107. The note with it: promastigotes pretreated 2 h; cited from earlier work.
In series [4] the test system is L. donovani serine proteases. More on the design: method as in PMID 26040107. Particulars: cited from earlier work.
Series [5] relates to L. donovani promastigotes. Set-up: method as in PMID 26040107. Particulars: aprotinin 1 µM, benzamidine 1 mM; after 5 h, 10 h, 15 h and 20 h of incubation; cited from earlier work.
The subject of series [6] is L. amazonensis in peritoneal macrophages. In words: Promastigote pretreatment and infection of peritoneal macrophages. Format: cell-based, Leishmania amazonensis. Particulars: for entry of promastigotes into macrophages: promastigotes pretreated 1 h, 0 h after 4 h interaction. The protocol:
(§1) Leishmania amazonensis-RFP promastigotes were pretreated with different concentrations of inhbitors during 1 h at 25 °C. The cells were washed with PBS and used to infect peritoneal macrophages from BALB/c mice (10:1 ratio), not pretreated or pretreated with 0.5 ng/mL IFN-γ overnight, in 24-well plates. After 4 h of interaction, the plates were washed with PBS and (1) scraped to remove attached cells and read using a spectrofluorimeter (time = 0 h) or (2) incubated at 33 °C with 5% CO2 for 24 h, 48 h, and 72 h for later scraping and reading (times = 24 h, 48 h, and 72 h). Three experiments were performed, each one with three replicates.
The same experiment was repeated, but using 13 mm glass coverslips in 24-well plates. The fixation with ethanol and staining with Giemsa were performed. Subsequently, the slides were examined in an optical microscope (Olympus BX53, Shinjuku, Tokyo, Japan) and photographed (Olympus DP73, Shinjuku, Tokyo, Japan).

Series [7] relates to L. amazonensis promastigotes. Set-up: method as in PMID 17726617. The note with it: 1 mM; 24 h, 48 h and 72 h of treatment; cited from earlier work.
For series [8], the system named is L. amazonensis (RFP) amastigotes. In words: Antiamastigote assay (RFP fluorescence, infected peritoneal macrophages). In kind it is cell-based. The note with it: Leishmania amazonensis, Peritoneal macrophage; 72 h of incubation; interval in brackets; read-out: Antileishmanial effect in Leishmania amazonensis IC50 Amastigote. On the procedure:
Peritoneal macrophages from BALB/c mice were obtained by peritoneal lavage and distributed in 24-well plates at 2 × 10^6 cells/mL in RPMI medium (Cultilab) containing 10% FBS and a 0.5% penicillin and streptomycin solution (complete RPMI). The plates were incubated for 1 h at 37 °C and 5% CO2, washed with phosphate-buffered saline (PBS), and then reincubated in complete RPMI medium overnight. The cells were washed again with PBS and infected with stationary growth phase L. amazonensis (RFP) promastigotes at a 10:1 ratio for 4 h at 33 °C. The plates were washed with PBS and the inhibitors were added at different concentrations and incubated for 72 h. After this time, each well was scraped to remove attached cells and the reading was taken with a spectrofluorimeter (FLx800, BioTek Instruments, Winooski, VT, USA) at 530 nm and 590 nm of excitation and emission, respectively. […] All assays were performed in triplicate and repeated three times. Results were calculated as the percentage of amastigote survival compared with the nontreated control group, and IC50 values were determined using GraphPad Prism 8 software.

Series [9] relates to Leishmania amazonensis-RFP promastigotes. In words: Viability of promastigotes after 1 h of treatment with inhibitors. In kind it is cell-based. Particulars: 1 h treatment, washed; 0 h, 24 h, 48 h and 72 h of incubation. The protocol: Leishmania amazonensis-RFP promastigotes were treated with different concentrations of inhibitors during 1 h at 25 °C and were washed with PBS. Then, these cells had their viability determined by fluorescence analysis using a spectrofluorimeter (time = 0 h) and were also reincubated in complete RPMI medium for subsequent analysis of cell viability after 24 h, 48 h, and 72 h (times = 24 h, 48 h, and 72 h) by fluorescence analysis.

Series [10] has as its system peritoneal macrophages from BALB/c mice. More on the design: method as in PMID 35678670, PMID 33584607, PMID 35890269. The note with it: 72 h of incubation; previously published data (*); cited from earlier work.
The test system of series [11] is L. amazonensis (RFP) amastigotes. Set-up: method as in PMID 35678670, PMID 33584607, PMID 35890269. The note with it: 72 h of incubation; previously published data (*); read-out: Antileishmanial effect in Leishmania amazonensis IC50 Amastigote; cited from earlier work.
Series [12] concerns L. amazonensis promastigotes and amastigotes. The note with it: different strains of L. amazonensis; cited from earlier work.
For series [13], the system named is NO production by host macrophages. Briefly: Determination of nitric oxide (NO) levels (Griess method). In kind it is cell-based, BALB/c mice. The note with it: supernatant of macrophages infected with promastigotes pretreated for 1 h. The protocol:
Supernatant from cultures of L. amazonensis-infected macrophages, in which promastigotes were pretreated or not with PF-429242 or TPCK, was collected, and NO levels were determined by the Griess method. NO levels were determined in aliquots of 50 µL of the supernatant, to which 50 µL of the Griess reagent were added (Griess Reagent: 1% sulfanilamide in 2.5% of H3PO4 + 0.1% N-1-diidrocloride naftiletilenodiamine in 2.5% H3PO4), in a 96-well microplate. Nitrite content was quantified by comparison with a sodium nitrite standard curve. The absorbance was measured at 540 nm using a spectrophotometer (Multiskan EX, Thermo Electron Corporation, Vantaa, Finland). The assays were carried out in duplicate and three independent experiments were realized. Macrophages prestimulated with 0.5 ng/mL IFN-γ overnight and infected with L. amazonensis promastigotes without pretreatment were used as positive controls.

For series [14], the system named is Leishmania amazonensis-WT promastigotes. More on the design: method as in PMID 35678670, PMID 33584607, PMID 35890269. The note with it: 72 h of incubation; previously published data (*); read-out: Antileishmanial effect in Leishmania amazonensis IC50 Promastigote; cited from earlier work.
The test system of series [15] is L. amazonensis in peritoneal macrophages prestimulated with IFN-γ. In words: Promastigote pretreatment and infection of macrophages prestimulated with IFN-γ. Format: cell-based, Leishmania amazonensis. Particulars: macrophages prestimulated with 0.5 ng/mL IFN-γ overnight; promastigotes pretreated 1 h. The protocol:
as §1

With `C[C@@H]1[C@H](O)[C@@H](C)/C=C/C=C/C=C/C=C/C=C/C=C/C=C/[C@H](O[C@@H]2O[C@H](C)[C@@H](O)[C@H](N)[C@@H]2O)C[C@@H]2O[C@](O)(C[C@@H](O)C[C@@H](O)[C@H](O)CC[C@@H](O)C[C@@H](O)CC(=O)O[C@H]1C)C[C@H](O)[C@H]2C(=O)O` [AMB, Amphotericin B], the IC50 in [1] worked out at 0.12 µM. In addition, the CC50 at 72 h in “Cytotoxicity assay (MTT)” (peritoneal macrophages, 72 h of incubation, MTT, interval in brackets, read-out: Peritoneal macrophages CC50) came out at 21.8 µM.

As for `CC(C)C[C@H](NC(=O)[C@H]1O[C@@H]1C(=O)O)C(=O)NCCCCN=C(N)N` [E-64], the “enzymatic activity on serine protease substrate” value in series [2] (3 µM) is recorded as “no impact on the activity”.

For aprotinin, in [3], the “intracellular survival of the parasites (ranking of inhibitors)” value is listed as “most reduced the intracellular survival”. In addition, the “inhibition of the proteolytic activity” value in series [4] (1 µM) is listed as 100%. Also, in series [5], the “cell viability of L. donovani promastigotes” value is on record as “reduced the cell viability”.

Take `N=C(N)c1ccccc1` [Benzamidine, benzamidine]: the “entry of promastigotes into macrophages” value in series [6] is reported as “did not change the entry”. Moreover, the “permanence and survival of amastigotes within host cells” value in series [6] (promastigotes pretreated 1 h with 200 µM or 6.25 µM, up to 72 h) is “did not alter the permanence and survival”. Moreover, the “intracellular survival of the parasites (ranking of inhibitors)” value in series [3] is “most reduced the intracellular survival”. Also, the “viability of L. amazonensis promastigotes” value in series [7] is given as “reduced the viability”. In addition, the IC50 in series [8] and in series [1] was over 200 µM each time. For the same molecule, the “inhibition of the proteolytic activity” value in [4] (1 mM) is 72%. Besides, in series [9], the “viability of promastigotes after 1 h of treatment, compared with the control” value is listed as “did not change the viability”. In “Cytotoxicity assay (MTT)”, this molecule came in with a CC50 at 72 h of 240 µM. Besides, in series [5], the “cell viability of L. donovani promastigotes” value is “reduced the cell viability”.

Turning to PF-429242, the “conversion of promastigotes into amastigotes” value in [6] (pretreated parasites (PF-429242 3.2 µM, TPCK 30 µM)) is given as “no difficulty was observed in conversion”. The “number of intracellular amastigotes (Giemsa, Supplementary Fig. 1)” value in series [6] (pretreatment with PF-429242 3.2 µM or TPCK 30 µM, 48 h and 72 h after infection) was “reduction in the number of amastigotes”. The “entry of promastigotes into macrophages” value in series [6] is given as “did not alter the entry”. The “survival of parasites within macrophages compared with the control” value in series [6] (promastigotes pretreated 1 h with 3.2 µM, 1.6 µM or 0.8 µM, 48 h and 72 h after infection) was “reduced survival”. In addition, the CC50 in [10] was 189 µM. The concentration for half-maximal inhibition (IC50) in series [11] is 120 µM; in series [14], 0.83 µM. In addition, in series [2] (2.5 µM inhibitor), the “enzymatic activity of L. amazonensis serine proteases” value was “able to inhibit the enzymatic activity”. The growth of promastigotes result in series [12] was “inhibition of the growth of promastigotes”. Moreover, the “NO production versus control group” value in series [13] was “no difference in NO production”. In addition, the “intracellular survival of L. amazonensis” value in [15] was “impairs the intracellular survival”. Further, the “viability of promastigotes after 1 h of treatment, compared with the control” value in series [9] is “not able to change cell viability”.
